Drawing on ChEMBL document CHEMBL5465560, “Selectivity Literature for EUbOPEN Chemogenomic Library” (2024), this text covers % of control, % of inhibition and IC50 for ten molecules.

For assay [1], the target named is Protein kinase C delta type (Homo sapiens) (UniProt Q05655). Briefly: Selectivity interaction (Kinase panel (Z-LYTE Assay)) EUB0001632a PRKCD. The note with it: at 10 µM.
In assay [2] the target is Ribosomal protein S6 kinase alpha-3 (Homo sapiens, UniProt P51812). Briefly: Selectivity interaction (Ambit KINOMEscan and KiNATiv profiling in Jurkat cells) EUB0000090b RPS6KA3. In kind it is cell-based. The note with it: at 1 µM.
The target of assay [3] is T1, Serine/threonine-protein kinase STK11 (Homo sapiens) (UniProt Q15831).
T1 sequence (whole entry): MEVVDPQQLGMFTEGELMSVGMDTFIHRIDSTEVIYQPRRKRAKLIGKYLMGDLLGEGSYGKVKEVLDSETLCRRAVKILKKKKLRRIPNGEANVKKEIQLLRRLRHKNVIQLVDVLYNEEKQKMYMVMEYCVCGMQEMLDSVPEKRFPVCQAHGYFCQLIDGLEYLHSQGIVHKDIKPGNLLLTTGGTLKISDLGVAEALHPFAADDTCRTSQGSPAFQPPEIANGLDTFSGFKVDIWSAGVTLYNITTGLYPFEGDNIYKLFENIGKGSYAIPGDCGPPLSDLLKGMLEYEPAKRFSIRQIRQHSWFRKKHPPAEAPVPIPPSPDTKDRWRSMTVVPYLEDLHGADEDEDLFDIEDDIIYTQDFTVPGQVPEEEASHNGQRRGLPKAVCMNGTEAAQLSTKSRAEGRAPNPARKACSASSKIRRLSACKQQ
Briefly: Selectivity interaction (KinomeScan (DiscoverX)) EUB0000607a STK11. Particulars: at 10 µM.

Assay [4] has as its target Phosphatidylinositol 4,5-bisphosphate 3-kinase catalytic subunit beta isoform (Homo sapiens) (UniProt P42338). The experiment in a line: Selectivity interaction (ActivX KiNativ screen (ex vivo kinase selectivity in human PBMCs)) EUB0001619a PIK3CB. It counts as cell-based. Particulars: PBMC, at 1 µM.
The target in assay [5] is Tyrosine-protein kinase SYK (Homo sapiens, UniProt P43405). Briefly: Selectivity interaction (Kinase panel (33PanQinase(R) Activity Assay)) EUB0000877a SYK.
Assay [6] has as its target eIF-2-alpha kinase GCN2 (Homo sapiens) (UniProt Q9P2K8). The experiment in a line: Selectivity interaction (ActivX KiNativ screen (kinase selectivity in THP-1 cell lysates)) EUB0000639a EIF2AK4. The note with it: lysate, at 0.2 µM. In kind it is subcellular.
The target of assay [7] is Serine/threonine-protein kinase 26 (Homo sapiens, UniProt Q9P289). Briefly: Selectivity interaction (ActivX KiNativ screen (kinase selectivity in THP-1 cell lysates)) EUB0000639a STK26. In kind it is subcellular. Particulars: lysate, at 1 µM.
The target of assay [8] is Serine/threonine-protein kinase N1 (Homo sapiens, UniProt Q16512). The experiment in a line: Selectivity interaction (ActivX KiNativ screen (kinase selectivity in THP-1 cell lysates)) EUB0000639a PKN1. In kind it is subcellular. Particulars: lysate, at 5 µM.
The target in assay [9] is Mitogen-activated protein kinase 6 (Homo sapiens) (UniProt Q16659). The note with it: at 10 µM.
Assay [10] deals with T2, Cytoplasmic tyrosine-protein kinase BMX (Homo sapiens) (UniProt P51813).
T2 sequence (whole entry): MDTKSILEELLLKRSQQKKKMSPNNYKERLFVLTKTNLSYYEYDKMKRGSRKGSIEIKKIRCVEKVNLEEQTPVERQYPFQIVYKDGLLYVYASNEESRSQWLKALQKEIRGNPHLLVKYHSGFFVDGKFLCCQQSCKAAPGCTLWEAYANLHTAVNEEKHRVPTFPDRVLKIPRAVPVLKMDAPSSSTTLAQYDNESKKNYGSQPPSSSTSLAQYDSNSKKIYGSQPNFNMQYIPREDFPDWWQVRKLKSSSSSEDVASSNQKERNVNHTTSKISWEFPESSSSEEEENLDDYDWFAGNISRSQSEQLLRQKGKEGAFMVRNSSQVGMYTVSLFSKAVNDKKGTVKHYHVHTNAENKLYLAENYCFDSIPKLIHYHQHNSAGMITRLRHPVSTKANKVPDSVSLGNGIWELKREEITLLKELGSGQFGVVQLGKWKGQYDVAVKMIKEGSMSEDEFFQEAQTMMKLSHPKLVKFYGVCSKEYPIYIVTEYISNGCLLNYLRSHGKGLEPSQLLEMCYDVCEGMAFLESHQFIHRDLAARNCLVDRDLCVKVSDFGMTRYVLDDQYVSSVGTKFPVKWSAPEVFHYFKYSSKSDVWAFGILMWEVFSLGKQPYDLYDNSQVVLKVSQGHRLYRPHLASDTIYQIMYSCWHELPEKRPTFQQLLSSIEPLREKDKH
Briefly: Selectivity interaction (ProQinase) EUB0000171b BMX.

For assay [11], the target named is Bone morphogenetic protein receptor type-1A (Homo sapiens, UniProt P36894). Briefly: Selectivity interaction (KinomeScan (DiscoverX)) EUB0000092b BMPR1A. Particulars: at 10 µM.
Assay [12] concerns the target T3, Serine/threonine-protein kinase DCLK3 (Homo sapiens) (UniProt Q9C098).
T3 sequence (whole entry): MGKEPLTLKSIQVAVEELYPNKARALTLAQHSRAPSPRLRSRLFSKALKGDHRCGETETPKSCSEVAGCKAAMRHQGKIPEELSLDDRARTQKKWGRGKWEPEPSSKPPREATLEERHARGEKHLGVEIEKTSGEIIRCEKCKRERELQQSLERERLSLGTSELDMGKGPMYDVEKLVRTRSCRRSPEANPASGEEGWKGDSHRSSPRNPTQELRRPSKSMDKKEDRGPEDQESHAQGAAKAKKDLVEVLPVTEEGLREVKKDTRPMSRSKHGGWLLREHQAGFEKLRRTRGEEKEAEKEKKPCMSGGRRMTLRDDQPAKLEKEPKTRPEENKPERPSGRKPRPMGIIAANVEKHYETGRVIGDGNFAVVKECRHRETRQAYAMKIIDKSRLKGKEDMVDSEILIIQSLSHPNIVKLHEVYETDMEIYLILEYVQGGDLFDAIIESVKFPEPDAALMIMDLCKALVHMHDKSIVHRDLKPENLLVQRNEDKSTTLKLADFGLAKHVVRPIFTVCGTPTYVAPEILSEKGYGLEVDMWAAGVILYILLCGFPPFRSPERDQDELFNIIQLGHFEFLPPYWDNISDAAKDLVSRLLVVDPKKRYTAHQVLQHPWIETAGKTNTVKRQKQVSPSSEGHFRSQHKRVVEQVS
The experiment in a line: Selectivity interaction (KinomeScan (DiscoverX)) EUB0000045b DCLK3.

Chain of Bone morphogenetic protein receptor type-1A (P36894 whole entry): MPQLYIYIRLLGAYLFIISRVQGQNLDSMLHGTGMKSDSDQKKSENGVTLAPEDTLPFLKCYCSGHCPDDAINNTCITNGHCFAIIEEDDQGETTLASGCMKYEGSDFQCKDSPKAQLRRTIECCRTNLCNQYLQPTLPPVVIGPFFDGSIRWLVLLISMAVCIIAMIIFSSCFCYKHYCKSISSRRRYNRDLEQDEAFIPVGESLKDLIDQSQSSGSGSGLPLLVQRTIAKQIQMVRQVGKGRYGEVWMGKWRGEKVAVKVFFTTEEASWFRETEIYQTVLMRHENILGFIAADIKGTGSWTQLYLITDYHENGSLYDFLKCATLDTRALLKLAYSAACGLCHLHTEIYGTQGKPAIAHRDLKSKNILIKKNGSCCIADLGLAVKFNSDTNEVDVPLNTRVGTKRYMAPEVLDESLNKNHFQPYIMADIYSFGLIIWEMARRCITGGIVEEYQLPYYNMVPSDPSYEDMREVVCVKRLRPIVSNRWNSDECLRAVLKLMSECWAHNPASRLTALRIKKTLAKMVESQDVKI
Chain of Serine/threonine-protein kinase 26 (Q9P289 2-416 limits assumed): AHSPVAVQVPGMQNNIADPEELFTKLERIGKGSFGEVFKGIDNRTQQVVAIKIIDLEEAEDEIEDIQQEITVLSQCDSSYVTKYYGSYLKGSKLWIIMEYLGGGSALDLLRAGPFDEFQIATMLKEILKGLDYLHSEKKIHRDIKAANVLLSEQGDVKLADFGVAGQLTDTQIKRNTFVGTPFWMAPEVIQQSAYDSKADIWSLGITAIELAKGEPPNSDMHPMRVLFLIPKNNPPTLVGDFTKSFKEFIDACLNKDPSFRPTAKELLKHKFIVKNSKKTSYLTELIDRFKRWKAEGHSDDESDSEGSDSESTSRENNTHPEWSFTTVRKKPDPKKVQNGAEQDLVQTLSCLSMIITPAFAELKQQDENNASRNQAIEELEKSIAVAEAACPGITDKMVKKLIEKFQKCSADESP
Chain of Protein kinase C delta type (Homo sapiens) (Q05655 whole entry, looked up): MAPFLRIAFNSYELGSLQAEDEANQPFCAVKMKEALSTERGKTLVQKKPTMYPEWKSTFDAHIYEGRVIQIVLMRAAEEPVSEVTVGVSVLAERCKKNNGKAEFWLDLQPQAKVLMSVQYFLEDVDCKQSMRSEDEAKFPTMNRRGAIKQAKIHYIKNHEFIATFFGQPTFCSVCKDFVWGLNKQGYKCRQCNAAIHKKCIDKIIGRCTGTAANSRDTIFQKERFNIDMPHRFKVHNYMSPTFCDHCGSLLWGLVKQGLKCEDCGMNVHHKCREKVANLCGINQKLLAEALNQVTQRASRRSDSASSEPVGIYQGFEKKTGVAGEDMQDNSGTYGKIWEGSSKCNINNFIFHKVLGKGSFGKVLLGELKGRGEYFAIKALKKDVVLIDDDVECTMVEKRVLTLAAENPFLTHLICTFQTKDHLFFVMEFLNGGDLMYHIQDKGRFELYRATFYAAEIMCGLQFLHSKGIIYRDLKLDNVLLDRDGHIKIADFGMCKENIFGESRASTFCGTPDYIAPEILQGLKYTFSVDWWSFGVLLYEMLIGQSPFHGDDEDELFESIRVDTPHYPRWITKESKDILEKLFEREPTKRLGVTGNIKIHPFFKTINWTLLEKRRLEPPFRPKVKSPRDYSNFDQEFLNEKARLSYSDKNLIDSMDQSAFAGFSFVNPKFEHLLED
Chain of Serine/threonine-protein kinase N1 (Q16512 2-942 limits assumed): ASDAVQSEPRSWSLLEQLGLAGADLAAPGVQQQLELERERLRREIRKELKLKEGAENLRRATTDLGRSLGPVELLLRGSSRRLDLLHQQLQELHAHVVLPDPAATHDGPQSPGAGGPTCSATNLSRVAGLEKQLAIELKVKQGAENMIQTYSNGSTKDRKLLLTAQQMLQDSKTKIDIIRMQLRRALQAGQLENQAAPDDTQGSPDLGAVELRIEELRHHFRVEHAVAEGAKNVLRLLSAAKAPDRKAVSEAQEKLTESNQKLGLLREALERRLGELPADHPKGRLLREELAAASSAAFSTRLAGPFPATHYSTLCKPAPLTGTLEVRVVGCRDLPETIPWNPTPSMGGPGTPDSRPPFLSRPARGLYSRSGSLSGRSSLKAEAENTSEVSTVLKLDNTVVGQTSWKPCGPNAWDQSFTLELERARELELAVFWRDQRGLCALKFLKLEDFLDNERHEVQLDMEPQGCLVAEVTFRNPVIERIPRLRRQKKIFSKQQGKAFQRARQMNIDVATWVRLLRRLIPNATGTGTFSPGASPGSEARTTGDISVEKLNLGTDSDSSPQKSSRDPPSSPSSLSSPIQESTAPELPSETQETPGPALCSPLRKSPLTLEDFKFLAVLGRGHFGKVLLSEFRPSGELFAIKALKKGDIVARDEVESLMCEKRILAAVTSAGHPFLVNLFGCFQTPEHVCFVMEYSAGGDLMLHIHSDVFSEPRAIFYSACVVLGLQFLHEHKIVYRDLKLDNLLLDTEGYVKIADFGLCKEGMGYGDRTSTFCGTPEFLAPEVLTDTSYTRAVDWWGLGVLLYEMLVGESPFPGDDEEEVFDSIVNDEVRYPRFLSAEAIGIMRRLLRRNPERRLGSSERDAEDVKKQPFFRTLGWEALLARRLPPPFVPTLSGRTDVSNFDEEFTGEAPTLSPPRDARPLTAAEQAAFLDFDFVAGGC
Chain of eIF-2-alpha kinase GCN2 (Homo sapiens) (Q9P2K8 whole entry): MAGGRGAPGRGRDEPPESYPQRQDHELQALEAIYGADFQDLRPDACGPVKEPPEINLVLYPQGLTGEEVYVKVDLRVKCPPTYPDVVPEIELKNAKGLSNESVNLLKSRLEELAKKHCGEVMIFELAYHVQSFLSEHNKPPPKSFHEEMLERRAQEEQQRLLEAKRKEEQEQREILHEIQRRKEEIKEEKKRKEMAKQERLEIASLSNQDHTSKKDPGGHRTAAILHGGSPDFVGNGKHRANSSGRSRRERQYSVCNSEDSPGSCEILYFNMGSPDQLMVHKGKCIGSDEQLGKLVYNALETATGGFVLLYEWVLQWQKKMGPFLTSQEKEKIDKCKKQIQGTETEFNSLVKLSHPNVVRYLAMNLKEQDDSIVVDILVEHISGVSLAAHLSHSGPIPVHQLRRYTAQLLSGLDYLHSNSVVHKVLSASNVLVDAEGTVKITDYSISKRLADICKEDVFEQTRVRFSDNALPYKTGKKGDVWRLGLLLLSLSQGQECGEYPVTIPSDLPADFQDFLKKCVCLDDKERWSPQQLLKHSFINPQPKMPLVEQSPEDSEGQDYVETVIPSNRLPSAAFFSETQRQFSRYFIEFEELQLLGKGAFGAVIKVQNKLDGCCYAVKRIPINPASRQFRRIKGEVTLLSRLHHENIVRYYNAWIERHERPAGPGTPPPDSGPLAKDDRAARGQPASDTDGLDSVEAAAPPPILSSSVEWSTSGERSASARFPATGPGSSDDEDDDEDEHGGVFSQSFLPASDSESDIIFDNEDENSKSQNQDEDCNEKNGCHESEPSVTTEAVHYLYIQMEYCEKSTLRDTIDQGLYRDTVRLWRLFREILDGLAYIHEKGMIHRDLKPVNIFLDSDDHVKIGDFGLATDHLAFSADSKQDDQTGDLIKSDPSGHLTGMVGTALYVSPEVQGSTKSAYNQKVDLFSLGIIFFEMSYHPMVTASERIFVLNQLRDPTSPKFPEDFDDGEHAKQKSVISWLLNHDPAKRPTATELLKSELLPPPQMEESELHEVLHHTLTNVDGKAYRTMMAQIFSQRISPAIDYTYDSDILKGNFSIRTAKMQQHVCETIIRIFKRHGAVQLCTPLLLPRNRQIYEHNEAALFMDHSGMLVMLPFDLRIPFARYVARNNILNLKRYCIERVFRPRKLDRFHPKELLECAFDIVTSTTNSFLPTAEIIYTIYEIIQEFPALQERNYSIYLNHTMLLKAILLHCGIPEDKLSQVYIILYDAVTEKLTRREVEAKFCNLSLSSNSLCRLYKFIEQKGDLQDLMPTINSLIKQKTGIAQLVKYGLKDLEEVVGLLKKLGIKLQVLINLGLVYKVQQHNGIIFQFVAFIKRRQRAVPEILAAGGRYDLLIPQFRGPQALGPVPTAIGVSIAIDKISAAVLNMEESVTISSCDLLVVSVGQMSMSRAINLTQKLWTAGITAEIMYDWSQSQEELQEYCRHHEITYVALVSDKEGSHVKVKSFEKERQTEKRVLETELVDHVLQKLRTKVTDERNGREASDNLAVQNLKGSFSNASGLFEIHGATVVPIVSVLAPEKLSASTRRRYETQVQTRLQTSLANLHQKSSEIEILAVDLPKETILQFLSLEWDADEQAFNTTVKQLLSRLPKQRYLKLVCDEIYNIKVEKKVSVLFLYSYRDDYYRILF
Chain of Mitogen-activated protein kinase 6 (Homo sapiens) (Q16659 whole entry): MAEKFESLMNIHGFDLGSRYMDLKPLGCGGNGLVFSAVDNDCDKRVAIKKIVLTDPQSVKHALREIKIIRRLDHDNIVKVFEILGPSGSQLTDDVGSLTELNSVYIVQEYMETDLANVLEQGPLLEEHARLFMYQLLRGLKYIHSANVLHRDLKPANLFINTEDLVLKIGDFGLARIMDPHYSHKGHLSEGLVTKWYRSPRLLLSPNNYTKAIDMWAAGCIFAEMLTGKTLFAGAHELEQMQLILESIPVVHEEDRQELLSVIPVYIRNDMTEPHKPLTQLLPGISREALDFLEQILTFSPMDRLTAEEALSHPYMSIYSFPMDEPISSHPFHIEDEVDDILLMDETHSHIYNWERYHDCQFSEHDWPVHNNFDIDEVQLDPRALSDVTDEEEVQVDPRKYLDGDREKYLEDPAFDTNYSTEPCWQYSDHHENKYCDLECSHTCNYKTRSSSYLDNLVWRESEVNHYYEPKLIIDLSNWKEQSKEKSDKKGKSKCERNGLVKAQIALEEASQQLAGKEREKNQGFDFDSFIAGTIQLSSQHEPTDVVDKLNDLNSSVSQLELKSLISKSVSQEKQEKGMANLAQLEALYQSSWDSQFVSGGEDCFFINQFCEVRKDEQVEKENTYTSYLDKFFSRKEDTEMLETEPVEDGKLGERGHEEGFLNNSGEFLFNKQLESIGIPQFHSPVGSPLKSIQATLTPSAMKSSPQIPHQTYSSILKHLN

Regarding `Cn1cc(-n2cnc3c(NCc4nc5cc(Cl)c(Cl)cc5[nH]4)nc(N4CCOCC4)nc32)cn1`, the % of control in [1] was -0.676%. On to `CN(C)C/C=C/C(=O)Nc1ccc(C(=O)N2CCCC(Nc3ncc(Cl)c(-c4c[nH]c5ccccc45)n3)C2)cc1` (centres undefined), for which the % of control in assay [2] came out at 100%. Take `CNC(=O)Nc1ccc(-c2nc(N3CC4CCC(C3)O4)c3cnn(C4CCC5(CC4)OCCO5)c3n2)cc1`: the % of control in assay [3] stood at 80%. As to `N#Cc1cccc(-c2c[nH]c3ncnc(N4CCOCC4)c23)c1`, in assay [4], the % of inhibition is -3%.

Turning to `CCC(=O)N1CC[C@H](Nc2ncnc3c2CN(c2cnc(OC)c(C(F)(F)F)c2)CC3)C1` [LENIOLISIB], the IC50 in assay [5] is greater than 10 µM. As to `CC[C@@H]1[C@H](F)C(=O)N[C@@H]1COc1nccc2cc(C(N)=O)c(OC)cc12` [ZIMLOVISERTIB], the figures for the % of inhibition in [6], in [7] and in assay [8] were 1.7%, -9.2% and 0.1%, respectively.

Turning to `CCN(CC)CCCCNc1ncc2cc(-c3cc(OC)cc(OC)c3)c(NC(=O)NC(C)(C)C)nc2n1`, the % of control in assay [9] amounted to 100%. As for `C=CC(=O)Nc1cccc(C(=O)Nc2ccc(Nc3cc(-c4[nH]c(SC)nc4C)ccn3)cc2)c1`, the % of control stood at 106% in assay [10] (at 1 µM) and 85% in assay [10] (at 5 µM). Regarding `CCC(=O)N1CCN(c2ccc(-n3c(=O)ccc4cnc5ccc(-c6cnc7ccccc7c6)cc5c43)cc2C(F)(F)F)CC1`, the % of control in assay [11] was 45%. For the molecule `C=CC(=O)Nc1cc(-n2c(=O)ccc3cnc4ccc(-c5ccc(NS(C)(=O)=O)cc5)cc4c32)ccc1C`, the % of control in [12] (at 1 µM) worked out at 94%; in assay [12] (at 10 µM), 78%.
